In PMC7618597, “Dual Nurr1/RXR agonism of valerenic acid and synthetic mimetics enables dimer-selective Nurr1 modulation” (ACS medicinal chemistry letters, 2025):

Columns and labels:
Nurr1 LBD = molecular target: T1, Nurr1 LBD (Homo sapiens, UniProt P43354); test: Isothermal titration calorimetry, recombinant Nurr1 LBD; assay type: binding; details: ITC
T1 construct: made in house
Procedure: Isothermal titration calorimetry. ITC experiments for ligand binding to Nurr1 and RXR were conducted on an Affinity ITC instrument (TA Instruments, New Castle, DE) at 25 °C with a stirring rate of 75 rpm using recombinantly expressed ligand binding domain proteins as described previously5,6. The respective LBD protein (12–25 μM) in buffer (20 mM Tris pH 7.5, 100 mM NaCl, 5% glycerol) containing 2-4% DMSO was titrated with the test compounds (100-150 μM in the same buffer containing 2-4% DMSO) in 21–26 injections (1 × 1 μL and 20 × 4 to 25 × 4 μL) with an injection interval of 120 s. As control experiments, the test compounds were titrated to the buffer, and the buffer was titrated to the protein under otherwise identical conditions. The heat rates of the compound-Nurr1 LBD titrations were analyzed using NanoAnalyze software (TA Instruments, New Castle, DE) with an independent binding model.

HEK293T cells = test: Multiplex toxicity assay; assay type: cell-based; details: for toxicity at the test concentrations of the gene expression study: 2 (10 μM), 3 (1 μM), multiplex toxicity assay; for concentration at which toxic effects start: HEK293T cells, confluence, metabolic activity, pyknosis, necrosis, n=4
Procedure: page 9: and 20 s of elongation at 68 °C. PCR product specificity was evaluated using a melting curve analysis ranging from 65 to 95 °C. Nurr1 target gene expression was normalized to rGAPDH mRNA expression per sample using the ΔCt-method. The following primers and annealing temperatures were used: rGAPDH (59.4 °[…]); rTH (59.4 °C): 5'-[…]); rFLRT2 (59.0 °C): 5'-[NT]); rSESN3 (62.4 °C): […]); rCRMP4 (58.0 °C): […]); rBDNF (58.0 °C): 5'-[NT]); rBIRC5 (59.4 °C): 5'-[…]); rCCND2 (59.0 °C): [NT]); rXIAP (61.1 °C): […]); rSOD2 (59.4 °C): [NT]). Multiplex toxicity assay. HEK293T cells were grown in DMEM high glucose, supplemented with 10% FCS, sodium pyruvate (1 mM), penicillin (100 U/mL), and streptomycin (100 μg/mL) at 37 °C and 5% CO2. The day before experiment, cells were seeded in 96-well plates (2 × 10^4 cells per well) in culture medium with reduced serum content (0.2%). The next day, medium was changed, maintaining the low serum content and additionally containing 0.1% DMSO with 2 (1 or 10 μM) or 3 ([…]), 0.1% DMSO with bexarotene (100 μM) or flavopiridol (100 μM) as positive controls, or 0.1% DMSO alone as untreated control. Each sample was prepared in 4 biologically independent replicates. After incubation for 24 h, the medium was changed to 90 μL culture medium without phenol red (0.2% FCS) and 10 μL Cell Counting Kit- 8 solution (CCK-8, MedChem Express #HY-[…]), and absorbance was measured after 2 h incubation at 450 nm on a Tecan Spark Cyto (Tecan Group AG) to assess metabolic activity of the cells. Thereafter, Hoechst33342 (10 μM, #ab228551, Abcam Limited, Cambridge, UK) and Live-or-Dye Nuc-Fix Red (0.05×, Biotium, Inc., Fremont, CA, 1691 USA) were added and incubated for 30 min to detect pyknosis and cellular necrosis, respectively. After incubation, a total of 3 fluorescence images per well at 10× magnification was taken to detect Hoechst33342-positive cell nuclei (Ex: 381-400 nm, Em: 414-450 nm) and Live-or- Dyepositive cells (Ex: 543-566 nm, Em: 580-611 nm), respectively, using a Tecan Spark Cyto (Tecan Group AG). Necrotic cells were counte d using CellProfiler (Version 4.2.6). Reference readings for background correction and detection of autofluorescence were taken at the same wavelengths prior to staining. Before drug administration, after the first medium exchange, 24 h after drug administration, and after fluorescence imaging cell confluence was assessed using the Tecan Spark Cyto, to account for changes in cell confluence due to drug administration and cell handling. Pyknosis was defined via a cutoff range describing the significant shift of Hoechst33342-positive signal per nuclear area in bexarotene vs. vehicle treated cells. The mean intensity/area values for each well were further normalized to the […] increment of pyknosis. […]

T1 sequence (P43354 360-595 limits assumed): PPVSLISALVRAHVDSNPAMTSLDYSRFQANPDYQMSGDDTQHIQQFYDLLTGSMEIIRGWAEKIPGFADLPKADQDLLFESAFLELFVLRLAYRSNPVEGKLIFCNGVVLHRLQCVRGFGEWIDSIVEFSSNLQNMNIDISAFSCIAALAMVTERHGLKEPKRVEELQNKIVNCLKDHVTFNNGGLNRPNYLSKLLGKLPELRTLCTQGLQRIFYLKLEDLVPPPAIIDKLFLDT

Cc1c2c(n(-c3ccc(CC(=O)O)cc3)c1C)CCC(F)(F)C2 [compound 2]
Kd (Nurr1 LBD): 600 nM | toxicity at the test concentrations of the gene expression study (HEK293T cells): non-toxic | concentration at which toxic effects start (HEK293T cells): > 30 µM

Cc1c(C)n(-c2ccc(CC(=O)O)cc2)c2ccc(F)cc12 [compound 3]
Kd (Nurr1 LBD): 600 nM | toxicity at the test concentrations of the gene expression study (HEK293T cells): non-toxic | concentration at which toxic effects start (HEK293T cells): 10 µM
